# From US6773727B1, “Use of gossypol and related terpenes for control of urban and agricultural pests” (The United States of America as represented by the …, priority 2001, dated 2004)
# Read-outs that look alike come from different tables or passages of the source.
# Columns and labels:
# [1] = system: tobacco budworm (Heliothis virescens [F.]) larvae; conditions: cited from earlier work; for effect on growth: at 2.5 μmoles/g diet; for effective dosage required to reduce by 50% the growth of larvae: larvae fed an artificial diet
# [2] = system: tobacco budworm larval growth; conditions: in vivo; cited from earlier work
# [3] = as recommended by manufacturers; pest not stated; cited from earlier work
# roaches = conditions: as recommended by manufacturers; cited from earlier work
# termites = assay: Termite lab colony bait matrix test (time to 100% mortality); format: in vivo, Formosan subterranean termite
# Experimental: Gossypol acetic acid complex, which is a commercially available pure chemical, is dissolved in 1 ml acetone (#9006-03; J. T. Baker, Phillipsburg, NJ) using a sterile container. In the pure form as gossypol acetic acid complex and at concentrations of 5 ppm, gossypol is effective when mixed with a chitin synthesis inhibitor of the benzophenyl urea family or microbes such as fungi, bacteria, or viruses, taking a mean time to kill the lab test of four months. At concentrations greater than 500 ppm, without the addition of any other chemical, gossypol acetic acid complex as an insecticide can kill the lab test colony after a mean duration of one month.
# Gossypol-acetic acid complex obtained from USDA-ARS-SRCC, New Orleans, La., crude cotton seed oil [8ETX(5)], from a commercial oil mill, and a commercial cotton meal [6MTN 925 CSM] were separately incorporated into a bait matrix as described in U.S. patent application Ser. No. 09/294,499 filed Apr. 20, 1999, at concentrations of 50, 25, and 12.5 ppm respectively. […] A total of 40 mg of the gossypol acetic acid complex, 250 mg of the crude cotton seed oil, and 900 mg of the cotton seed meal were individually weighed using a Mettler balance (model PB303; Fisher Scientific, Pittsburgh, Pa.). The gossypol-acetic acid complex was placed into a 50 ml sterile screw cap conical tube (#62.547.004; Sarstedt, Newton, N.C.) and dissolved with 1 ml acetone (#9006-03; J. T. Baker, Phillipsburg, N.J.).
# Under a laminar flow hood, the gossypol acetone solution was mixed with 40 ml of sterile nutritional supplement containing 150 ppm of chitin inhibitors (prepared as reported by Rojas, M. G. and Morales-Ramos, J. A., Apr. 2001, “Bait matrix for delivery of chitin synthesis inhibitors to the Formosan subterranean termite [Isoptera: Rhinotermitidae],” J. Econ. Entomol. 94(2):506-510). The tube was tightly closed with a screw cap and manually shaken for 30 seconds. The mixture was added to 100 g of sterile cellulose as reported by Rojas and Morales-Ramos (2001) supra. The cotton seed oil was mixed with 300 ml of supplement and mixed with the sterile cellulose. The cotton seed meal was mixed and homogenized with the sterile cellulose, and then the 300 ml nutritional supplement was added. Each mixture was manually homogenized using a stainless steel spatula.
# The mixtures were prepared as reported above for gossypol-chitin inhibitors, but without the addition of the chitin inhibitors. The fungal spores (400 mg) (Bio-Blast, EcoScience, Orlando, Fla.) were homogenized with the sterile cellulose, then the 300 ml of supplement gossypol-containing solution was added.
# To encase the bait matrix, tubes made of fibrous casing material (#124B; L. E. M. Products, Inc., Miamitown, Ohio) were cut into 150 mm long portions as reported by Rojas and Morales-Ramos (2001) supra. Fifty grams of bait matrix containing a mixture of a single gossypol source and a single chitin synthesis inhibitor, or single gossypol source and fungal spores, were compacted into one end of the inlet tube, at which point the open end of the inlet tube was closed with a rubber band. The bait casing was placed inside of the foraging box adjacent to a 10 g piece of pine wood, taking care that they were partially covered with the sand. […]
# All the experimental boxes were maintained under dark at 29±2° C., and 75±2% relative humidity. […] The time to reach 100% mortality was measured and recorded. […]
# bollworms = conditions: 0.15% gossypol in an artificial diet; regular diet 54.5%; cited from earlier work
# protease = conditions: cotton leafworm (S. littoralis); cited from earlier work
# [4] = system: tobacco budworm neonate larvae; conditions: nine days, cited from earlier work
# [5] = system: silverleaf whitefly (Bemisia argentifolii Bellows and Perring); conditions: in vivo; cited from earlier work
# invertase = conditions: cotton leafworm (S. littoralis); cited from earlier work
# [6] = system: cotton leafworm (Spodoptera littoralis [Boisduval]); conditions: cited from earlier work
# tobacco budworms = conditions: cited from earlier work
# [7] = system: Spiny bollworm (Earias insulana Boisduval); conditions: cited from earlier work
# amylase = conditions: cotton leafworm (S. littoralis); cited from earlier work
# ants = conditions: as recommended by manufacturers; cited from earlier work
# subterranean termites = conditions: as recommended by manufacturers; cited from earlier work
molecule,measurement,setting,value
COc1c(O)c(C=O)c2c(c1C(C)C)C(=O)C(C)=CC2=O [Hemigossypolone-6-methyl ether],effect on growth,[1],no effect on growth
C=C1CC[C@H]2O[C@]2(C)CC[C@@H]2[C@@H]1CC2(C)C [caryophyllene oxide],interaction with gossypol in retarding larval growth,[2],interacts synergistically
O=C(NC(=O)c1c(F)cccc1F)Nc1cc(Cl)c(Oc2ncc(C(F)(F)F)cc2Cl)c(Cl)c1 [chlorfuazuron],lethal amount,[3],about 0.5%
O=C(NC(=O)c1c(F)cccc1F)Nc1ccc(Cl)cc1 [diflubenzuron],lethal amount,[3],about 0.250%
N#Cc1nn(-c2c(Cl)cc(C(F)(F)F)cc2Cl)c(N)c1[S+]([O-])C(F)(F)F (stereo not drawn) [fipronil],lethal amount,roaches,about 0.05%
"CC(=O)O.Cc1cc2c(C(C)C)c(O)c(O)c(C=O)c2c(O)c1-c1c(C)cc2c(C(C)C)c(O)c(O)c(C=O)c2c1O [gossypol acetic acid complex, Gossypol acetic acid complex]",mean time to kill the lab test,"termites; 5 ppm, mixed with a chitin synthesis inhibitor of the benzophenyl urea family or microbes",four
same,time to mortality of a 1000-worker colony,"termites; 500 ppm, not mixed with any other chemicals, fungi, or bacteria",about 2.5 weeks
same,mean duration to kill the lab test colony,"termites; concentrations greater than 500 ppm, without any other chemical",one
same,dose sufficient to weaken the termites and allow other chemicals or microorganisms to induce mortality,"termites; preliminary results, doses from 5 to 500 ppm, mortality in about two months, no signs of repellency",100 ppm
Cc1cc2c(C(C)C)c(O)c(O)c(C=O)c2c(O)c1-c1c(C)cc2c(C(C)C)c(O)c(O)c(C=O)c2c1O [gossypol],food utilization,bollworms,42.5%
same,protease activity,protease,inhibits
same,larval size relative to control,[4]; 0.02% gossypol in artificial diet,98%
same,larval weight relative to controls,[4]; 0.06% gossypol in the diet,63%
same,larval weight relative to controls,[4]; 0.2% gossypol in the diet,13%
same,honeydew production,[5],did not affect
same,mortality,[5],did not affect
same,time until experimental colonies were dead,"termites; gossypol with the chitin inhibitor in bait matrix, control boxes (no gossypol) still alive",about two
same,invertase activity,invertase,does not affect
same,mortality,"[6]; 0.5% gossypol in the diet, after 10 days",~70%
same,larvae eventually pupated,[6]; 0.5% gossypol in the diet,0.3%
same,feeding,[6]; 1.0% gossypol in the diet,strongly suppressed feeding
same,food consumption,"tobacco budworms; gossypol 0.30%, 5- and 8-day-old larvae",impaired
same,food utilization,tobacco budworms; gossypol at the 0.15% level,did not measurably affect food utilization
same,effective dosage required to reduce by 50% the growth of larvae,[1],0.8 μmoles/g diet
same,pupated,[7]; bolls containing 0.58% gossypol,45%
same,pupated,[7]; bolls containing 2.34% gossypol,9%
same,amylase activity,amylase,inhibits
COc1c(O)c(C=O)c2c(c1C(C)C)C(=O)C1(C)CC=C(C)C(CC=C(C)C)C1C2=O (stereo not drawn) [heliocide B1],effective dosage required to reduce by 50% the growth of larvae,[1],4.6 μmoles/g diet
COc1c(O)c(C=O)c2c(c1C(C)C)C(=O)C1(C)CC=C(CCC=C(C)C)CC1C2=O (stereo not drawn) [heliocide B2],effect on growth,[1],no effect on growth
COc1c(O)c(C=O)c2c(c1C(C)C)C(=O)C1(C)CC(CCC=C(C)C)=CCC1C2=O (stereo not drawn) [heliocide B3],effect on growth,[1],no effect on growth
CC(C)=CCC1C(C)=CCC2(C)C(=O)c3c(c(C=O)c(O)c(O)c3C(C)C)C(=O)C12 (stereo not drawn) [heliocide H1],effective dosage required to reduce by 50% the growth of larvae,[1],2.5 μmoles/g diet
CC(C)=CCCC1=CC[C@]2(C)C(=O)c3c(c(C=O)c(O)c(O)c3C(C)C)C(=O)[C@@H]2C1 [heliocide H2],effective dosage required to reduce by 50% the growth of larvae,[1],11.2 μmoles/g diet
CC(C)=CCCC1=CC[C@H]2C(=O)c3c(C=O)c(O)c(O)c(C(C)C)c3C(=O)[C@@]2(C)C1 [heliocide H3],effective dosage required to reduce by 50% the growth of larvae,[1],3.9 μmoles/g diet
CC1=CC(=O)c2c(C=O)c(O)c(O)c(C(C)C)c2C1=O [hemigossypolone],effective dosage required to reduce by 50% the growth of larvae,[1],10.5 μmoles/g diet
O=C(NC(=O)c1c(F)cccc1F)Nc1cc(Cl)c(OC(F)(F)C(F)F)c(Cl)c1 [hexaflumuron],lethal amount,[3],about 0.5%
CC1(C)CNC(=NN=C(/C=C/c2ccc(C(F)(F)F)cc2)/C=C/c2ccc(C(F)(F)F)cc2)NC1 [hydramethylnon],lethal amount,ants,about 1.0%
same,lethal amount,subterranean termites,about 0.030%
O=[N+]([O-])NC1=NCCN1Cc1ccc(Cl)nc1 [imidacloprid],lethal amount,roaches,about 2.15%
caryophyllene,interaction with gossypol in retarding larval growth,[2],does not act synergistically
